# Test results from publication PMC8041276 (ACS Chemical Neuroscience, 2021).
# How the values were obtained:
# CYP2D6 = target: T1, CYP2D6 (Homo sapiens, UniProt P10635); test: CYP2D6 P450-Glo luminescent inhibition assay; format: in vitro ADME; details: 0.01–25 μM
# T1 construct: purchased Promega (Madison, WI, USA)
# Text: The luminescent CYP3A4 P450-Glo and CYP2D6 P450-Glo assays and protocols were provided by Promega (Madison, WI, USA). The P450-Glo systems based on the conversion proluciferins, derivatives of beetle luciferin [(4S)-4,5-dihydro-2-(6′-hydroxy-2′-benzothiazolyl)-4-thiazolecarboxylic acid] into D-luciferin were catalyzed by respective CYP isoform. D-Luciferin is formed and detected in a second reaction with the luciferin detection reagent (LDR). The amount of light produced in the second reaction is proportional to CYP activity.
# The stock solutions (10 mM) of the references ketoconazole (KE), quinidine (QD), and examined compounds were performed in DMSO. The 4× concentrated dilutions were prepared before the assays. […]
# The CYPs, proluciferin, and examined compounds (25 μL/well) were preincubated first for 5 min, and next the NADPH regeneration system was added (25 μL) to start the reaction. […] The control reactions for measuring the 100% of CYPs activity and minus-CYP negative control reactions for measure background luminescence were also prepared. […] Finally, LDR was added (50 μL/well), and after 20 min of incubation in room temperature the luminescence signal was measured with a microplate reader (EnSpire, PerkinElmer) in luminescence mode. […] The IC50 values and were calculated using GraphPad Prism 5 software.
# HepG2 cells = test: MTT assay, hepatotoxicity in HepG2 cells; format: cell-based, human; details: HepG2, 24 h
# Method: Human hepatocellular carcinoma cells (HepG2) were cultured using standard procedures (protocol from ATCC). Cells were cultured in Eagle’s minimum essential medium (EMEM) in flasks with an area of 25 cm^2 (Falcon), supplemented with 10% of fetal bovine serum (FBS, Life Technologies) with the addition of 100 IU/mL penicillin (Sigma-Aldrich) and 100 μg/mL streptomycin (Sigma-Aldrich) and incubated at 37 °C in a humidified atmosphere with 5% CO2.
# The MTT assay was used to determine the viability of HepG2 cells incubated in the presence of compound 27 and DOX. Cells were seeded at a density of 2 × 10^4 in 96-well plates. […] Following cell exposure to each compound 10 μL of MTT reagent (Sigma-Aldrich) was added to each well. After 4 h of incubation (37 °C, 5% CO2) the culture medium was aspirated and formazan crystals were dissolved in 100 μL of DMSO. Then, optical density (OD) at 570 nm was determined on a plate reader (Spectra Max iD3, Molecular Devices). Each individual experiment was repeated at least three times.
# cognitive flexibility = test: Attentional set-shifting task (ASST); format: in vivo, male Sprague-Dawley rats; details: rats
# Method: The experiments were conducted in accordance with the NIH Guide for the Care and Use of Laboratory Animals and were approved by the II Local Ethics Committee for Animal Experiments, Maj Institute of Pharmacology. Male […] Sprague-Dawley rats (Charles River, Germany) weighing ∼250 g at the arrival were housed in the standard laboratory cages, under standard colony A/C controlled conditions: room temperature 21 ± 2 °C, humidity (40–50%), 12 h light/dark cycle (lights on, 06:00) with ad libitum access to food (unless stated otherwise) and water. Rats were allowed to acclimatize for at least 7 days before the start of the experimental procedure. During this week animals were handled at least 3 times. Behavioral testing was carried out during the light phase of the light/dark cycle. At least 1 h before the start of the experiment, rats were transferred to the experimental room for acclimation.
# Thirty-two male Sprague-Dawley rats were group housed with a mild food restriction (17 g of food pellets per day) for at least 1 week prior to training.
# Testing was conducted in a Plexiglas apparatus (length × width × height: 38 cm × 38 cm × 17 cm) with the grid floor and wall dividing half of the length of the cage into two sections. During testing, one ceramic digging pot (internal diameter of 10.5 cm and a depth of 4 cm) was placed in each section. Each pot was defined by a pair of cues along with two stimulus dimensions. To mark each pot with a distinct odor, 5 μL of a flavoring essence (Dr Oetker, Poland, or The Body Shop, U.K.) was applied to a piece of blotting paper fixed to the external rim of the pot immediately prior to use. A different pot was used for each combination of digging medium and odor; only one odor was ever applied to a given pot. The bait (one-half of a Honey Nut Cheerios, Nestle) was placed at the bottom of the “positive” pot and buried in the digging medium. A small amount of powdered Cheerios was added to the digging media to prevent the rat from trying to detect the buried reward by its smell. […]
# Day 3, Testing. […] An incorrect choice was recorded as an error. […]
# T1 sequence (P10635 whole entry): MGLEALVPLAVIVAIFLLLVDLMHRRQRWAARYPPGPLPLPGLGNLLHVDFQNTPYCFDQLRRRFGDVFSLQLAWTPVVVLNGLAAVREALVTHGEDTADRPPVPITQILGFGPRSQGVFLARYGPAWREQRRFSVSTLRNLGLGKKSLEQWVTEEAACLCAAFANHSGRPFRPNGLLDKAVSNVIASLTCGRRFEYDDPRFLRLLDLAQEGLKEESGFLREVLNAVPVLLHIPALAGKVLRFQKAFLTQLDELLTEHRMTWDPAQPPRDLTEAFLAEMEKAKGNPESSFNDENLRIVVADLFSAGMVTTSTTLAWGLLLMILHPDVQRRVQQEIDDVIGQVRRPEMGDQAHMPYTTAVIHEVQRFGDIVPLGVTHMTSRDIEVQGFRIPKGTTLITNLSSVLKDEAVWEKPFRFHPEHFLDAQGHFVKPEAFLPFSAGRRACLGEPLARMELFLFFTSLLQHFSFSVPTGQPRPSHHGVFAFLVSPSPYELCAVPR
smiles,measurement,setting,value
"O=C(N[C@@H]1CCNC1)c1ccn(S(=O)(=O)c2cccc(Cl)c2)c1-c1ccc(F)cc1 [Compound 27, (R)-2-(4-Fluorophenyl)-1-[(3-chlorophenyl)sulfonyl]-N-(pyrrolidin-3-yl)-1H-pyrrole-3-carboxamide]",influence on CYP2D6 activity,CYP2D6,did not significantly influence
same,metabolic activity of cells (MTT test),HepG2 cells; 0.1–25 μM,did not impair the metabolic activity of cells
same,IC50,"HepG2 cells; Homo sapiens, printed in Figure 5A, read-out: IC50, cellular viability (MTT)",32.3 µM
same,cognitive flexibility (trials to criterion),cognitive flexibility; 6 mg/kg p.o.,effective only during the Rev2 phase
same,cognitive flexibility (trials to criterion),"cognitive flexibility; 9 mg/kg p.o., ED, Rev1, Rev2, Rev3 stages",enhanced cognitive flexibility
same,mean time to complete the trial,"cognitive flexibility; 6 and 9 mg/kg p.o., all discrimination stages",did not affect the mean time to complete the trial
